Laboratory results published in patent publication US11124490B2, “Autotaxin inhibitors” (UNIVERSITY OF TENNESSEE RESEARCH FOUNDATION, priority 2016, dated 2021).
Where “and” joins values, the source holds several entries; their conditions need not be identical. Identical values can stand only once.

How the values were obtained:
human recombinant ATX [1] = target: T1, human recombinant ATX (Homo sapiens (Human), UniProt Q13822); assay: ATX inhibition, hydrolysis of FRET substrate FS-3; format: biochemical; settings: for IC50: 1 μM FS-3, 4 nM human recombinant ATX, 1 hour time point, read-out: IC50 (nM ± SD) vs FS-3
Method: (§1) ATX Generation: Human recombinant ATX was expressed as published previously, using Sf9 Spodoptera frugiperda ovary cells (Invitrogen, Carlsbad, Calif.).^13 Suspension cells were grown to a 1 liter quantity at a concentration of 1×10^6 cells/ml in Sf-900 III serum-free medium (Invitrogen) supplemented with 50 U/ml penicillin and 50 μg/ml streptomycin at 27° C. with agitation. Cells were then infected with high-titer baculovirus generated via Bac-to-Bac Baculovirus Expression System (Invitrogen) using the pCMV5 mammalian expression vector containing the C-terminal FLAG-tagged human ATX sequence (a generous gift from Dr. Junken Aoko, ohoku University, Aoba-ku, Sendai, Japan) subcloned into the pFastBacl transfer vector. […] Resultant ATX was then concentrated via centrifugation in Amicon Ultra 30,000 molecular weight cut off filter units (Millipore, Billerica, Mass.) and subsequent buffer exchange into storage buffer comprised of 50 mM Tris, pH 7.4 with 20% (v/v) ethylene glycol. Protein was held at −80° C. for long-term storage.
(§2) ATX Inhibition: ATX activity was assessed via hydrolysis of the synthetic, lipid-like FRET-based substrate FS-3 (Echelon Biosciences, Salt Lake City, Utah) or via hydrolysis of the nucleotide substrate p-nitrophenyl thymidine 5′-monophosphate (pNP-TMP) as described previously.^2 Reaction wells were loaded in 60 μl volumes in triplicate wells of half-area, black-wall 96-well plates in assay buffer consisting of 50 mM Tris, 140 mM NaCl, 5 mM KCl, 1 mM CaCl2, 1 mM MgCl2, […] BSA, pH 8.0. […] Fluorescence was read every 2 minutes for 1 hour at excitation/emission wavelengths of 485/528 nm for FS-3 hydrolysis or 405 nm absorbance for pNP-TMP hydrolysis using a FlexStation 3 microplate reader (Molecular Devices, Sunnyvale, Calif.). Data (relative fluorescence or absorbance) were then recorded as a mean value of the triplicates for each sample versus time. […] In the case of mechanism determination, the linear fluorescence data from time 10 minutes to 30 minutes were then transformed using a carboxyfluorescein standard curve to determine product concentration and plotted separately. Linear trend lines were inserted using Microsoft Excel, the slope of which represent the rates of reaction for each substrate concentration. This reaction rate data for each inhibitor concentration were then plotted against substrate (FS-3) concentration and simultaneously fitted via non-linear regression in the Michaelis-Menten equations for competitive, non-competitive, uncompetitive, and mixed-mode inhibition using GraphPad Prism version 5.0a. Mechanism of inhibition was determined by which curve fit had the best global fit (R^2 value).

human recombinant ATX [2] = target: T1, human recombinant ATX; assay: ATX inhibition, hydrolysis of nucleotide substrate pNP-TMP; format: biochemical; settings: 1 mM pNP-TMP, 4 nM ATX, compound 0 to 1 μM
Method: as §1, §2

[3] = test system: A2058 human melanoma cells; assay: In vitro invasion assay (boyden chamber, matrigel); format: cell-based; settings: recombinant ATX plus 1 μM 18:1 LPC, 20 h, read-out: IC50 (nM) in cell invasion assay
Method: The boyden chamber assay was used to assess the effect of three of the benzene sulfonamide analogues on cell invasion of A2058 human melanoma cells in vitro. The A2058 cells invade the matrigel layer in an LPA-dependent manner. Therefore, exogenous LPC and recombinant ATX was used as a source of LPA. Firstly, the compounds were screened at 10 μM concentration alongside BMP 22, a potent ATX inhibitor^31. […] Subsequently, dose response curves for compounds 3a, 3b and 14 were generated (FIG. 13B).
In vitro invasion assay—A2058 human melanoma cell line (gift from Dr. Timothy Clair, NCI, National Institutes of Health) was cultured in Dulbecco's modified Eagle's medium (DMEM) supplemented with 10% (V/V) FBS, 100 U/mL penicillin, 100 μg/mL streptomycin and 2 mM L-glutamine (Life Technologies). Cell invasion was performed using the 24-well BD Biocoat™ tumor invasion system (BD Biosciences, 8 μm-pore size). Briefly, the matrigel coating was rehydrated with PBS at 37° C. for 2 h. After removal of PBS, 5×10^4 A2058 cells in serum-free DMEM supplemented with 0.1% BSA were plated to each upper chamber. […] The fluorescent invaded cells were measured using the FLEXstation II plate reader (Molecular Devices) at excitation and emission wavelengths of 485 and 530 nm, respectively.

LPA1 receptor = LPA1 receptor (Homo sapiens (Human), UniProt Q92633); assay: LPA-mediated Ca2+ mobilization, LPA1 RH7777 cells; format: cell-based; settings: for IC50: IC50 of compound in presence of EC50 concentration of LPA 18:1, read-out: EC50 or IC50 (μM), LPA1 RH7777; for Emax (% LPA), LPA1 RH7777: normalized to LPA 18:1 Emax
Sequence of LPA1 receptor (Q92633 whole entry): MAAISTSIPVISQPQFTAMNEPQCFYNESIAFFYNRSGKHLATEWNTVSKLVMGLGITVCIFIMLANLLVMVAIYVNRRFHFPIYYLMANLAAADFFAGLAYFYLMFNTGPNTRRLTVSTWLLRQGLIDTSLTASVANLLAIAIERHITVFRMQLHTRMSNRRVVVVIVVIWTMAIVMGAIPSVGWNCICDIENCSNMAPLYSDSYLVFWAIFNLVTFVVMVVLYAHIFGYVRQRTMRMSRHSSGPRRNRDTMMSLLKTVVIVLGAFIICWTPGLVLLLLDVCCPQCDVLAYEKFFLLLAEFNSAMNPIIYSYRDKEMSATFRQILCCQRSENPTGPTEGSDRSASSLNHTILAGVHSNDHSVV
Method: Cell Culture: LPA1 and LPA3 RH7777 rat hepatoma cells were generated in-house as described previously^34 and maintained in DMEM supplemented with 10% FBS and 2 mM L-glutamine with 250 μg/ml G418. LPA2 MEF mouse embryonic fibroblast cells were also derived from LPA1 and LPA2 double knockout mouse embryos as described previously^35 and maintained in DMEM supplemented with 10% FBS, 2 mM L-glutamine, 100 U/ml penicillin and 100 μg/ml streptomycin. LPA4 CHO chinese hamster ovary cells were a generous gift from Dr. Takao Shimizu (Tokyo University, Tokyo, Japan) and were maintained in Ham's F12 medium supplemented with 10% FBS, 2 mM L-glutamine and 350 μg/ml G418. LPA5 B103 rate neuroblastoma cells were derived in house via lentiviral transduction of FLAG-tagged LPA5 and puromycin selection as published^36 and maintained in DMEM supplemented with 10% FBS and 0.4 μg/ml puromycin. All cells were maintained at 37° C. with 5% CO2 in a humidified atmosphere.
Calcium Mobilization: As published previously, LPAR activation leads to transient calcium mobilization. […] All cells were plated in triplicate in 96-well, black-wall plates at a density of 5×10^4 cells per well and allowed to adhere overnight. LPA1 and LPA3 RH7777 cells were plated in poly-L-lysine coated plates. LPA5 B103 cells were plated in Matrigel-coated plates. After adherence, cells were serum-deprived in Krebs buffer consisting of 10 mM HEPES, pH 7.4 with 120 mM NaCl; 5 mM KCl; 1.8 mM CaCl2; 0.62 mM MgSO4; 6 mM D-glucose. LPA1 RH7777, LPA3 RH7777 and LPA5 B103 cells were serum-deprived for 4 hours, while LPA2 MEF cells were serum-deprived for 1 hour, and LPA4 CHO cells were not serum-deprived. Fura 2-AM was then loaded for 30 minutes at a concentration of 4.5 μg/ml in Krebs buffer with 0.45% (v/v) Pluronic F-127 (and additionally 0.1% BSA and 2.5 mM Probenicid for LPA4 CHO cells), after which cells were switched to fresh Krebs buffer. […] Fluorescence corresponding to calcium mobilization was immediately monitored upon addition every 3.42 seconds over a span of 70 seconds total at excitation/emission wavelengths of 340/510 and 380/510 nm. […] GraphPad Prism version 5.0a was then used to plot the data and fit non-linear regression curves in a variable slope model in order to determine the pharmacodynamics (EC50 or IC50) of the compounds in Ca^2+ mobilization.

What does the source list for O=C(Nc1ccc(F)c(F)c1)c1cc(S(=O)(=O)N2CCOCC2)c(Cl)cc1Cl [Compound 3a, 2,4-dichloro-N-(3,4-difluorophenyl)-5-(morpholinosulfonyl)benzamide]?
fold IC50 improvement relative to screening hit 918013 (human recombinant ATX [1]): four-fold; IC50 (human recombinant ATX [1]): 31.5 ± 2.11 nM; pNP-TMP Inhibition (human recombinant ATX [2]): None; IC50 [3]: 1478 ± 12.3 nM

Which results are given for O=C(Nc1cc(F)c(F)c(F)c1)c1cc(S(=O)(=O)N2CCOCC2)c(Cl)cc1Cl [Compound 3b, 2,4-dichloro-5-(morpholinosulfonyl)-N-(3,4,5-trifluorophenyl)benzamide]?
Mechanism (human recombinant ATX [1]; mechanism of inhibition, FS-3 0 to 10 μM, inhibitor 0, 0.5×IC50 or 2×IC50): Competitive; pNP-TMP Inhibition (human recombinant ATX [2]): sparing effects and None; IC50 (LPA1 receptor): 9.1 µM; Emax (% LPA), LPA1 RH7777 (LPA1 receptor): 37.99 % LPA; IC50 [3]: 528 ± 13.9 nM

O=C(Nc1cc(F)c(Cl)c(F)c1)c1cc(S(=O)(=O)N2CCOCC2)c(Cl)cc1Cl [Compound 3f, 2,4-dichloro-N-(4-chloro-3,5-difluorophenyl)-5-(morpholinosulfonyl)benzamide] was tested. Which IC50 (human recombinant ATX [1]) did it give?
Its IC50 is 83 nM and 83.7 nM.

What about the “pNP-TMP Inhibition” value (human recombinant ATX [2]) of the same compound?
The value was “None”.

And the IC50 (LPA1 receptor)?
Its IC50 is 3.96 µM.

And the “Emax (% LPA), LPA1 RH7777” value (LPA1 receptor)?
Its value is 38.58 % LPA.

With O=C(Nc1cc(Cl)c(F)c(Cl)c1)c1cc(S(=O)(=O)N2CCOCC2)c(Cl)cc1Cl [Compound 3g, 2,4-dichloro-N-(3,5-dichloro-4-fluorophenyl)-5-(morpholinosulfonyl)benzamide] as the compound, how does the IC50 (human recombinant ATX [1]) read?
Its IC50 is 40.09 ± 0.33 nM.

What about the “pNP-TMP Inhibition” value (human recombinant ATX [2]) of the same compound?
The value was “None”.

And the IC50 (LPA1 receptor)?
The IC50 was 11.9 µM.

What about the “Emax (% LPA), LPA1 RH7777” value (LPA1 receptor) of the same compound?
Its value is 36.08 % LPA.
